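Assay format: 96-well plates, 48-hour exposure. GI50: concentration for 50% inhibition of growth. TGI is the concentration that stops growth completely.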
What was measured:
Experiment in all cases: NCI-60 cell line screen, 48 h
[1] = system: HCT-116 colon
[2] = system: EKVX NSCLC
[3] = system: T-47D breast
[4] = system: HOP-92 NSCLC
[5] = system: SNB-19 CNS
[6] = system: SK-MEL-2 melanoma
[7] = system: ACHN renal
[8] = system: HCT-15 colon
[9] = system: NCI-H23 lung
[10] = system: RPMI-8226 leukemia

Row | SMILES | GI50 [1] [µM] | TGI [1] [µM] | GI50 [2] [µM] | TGI [2] [µM] | GI50 [3] [µM] | TGI [3] [µM] | GI50 [4] [µM] | TGI [4] [µM] | GI50 [5] [µM] | TGI [5] [µM] | GI50 [6] [µM] | TGI [6] [µM] | GI50 [7] [µM] | TGI [7] [µM] | GI50 [8] [µM] | TGI [8] [µM] | GI50 [9] [µM] | TGI [9] [µM] | TGI [10] [µM] | GI50 [10] [µM]
1 | COc1ccc(-n2nc(C(=O)NCC(=O)Nc3nc4cc(OC)ccc4s3)c3ccccc3c2=O)cc1 | 1.64 | > 100 | 1.96 | 14.8 | 0.927 | 5.81 | 0.572 | 1.68 | 1.84 | 6.07 | 1.69 | 5.12 | 1.1 | 8.7 | > 24 | > 100 | 1.32 | 9 | > 100 | –
2 | COc1cc(-c2cn(-c3ccc(F)cc3)c(=O)[nH]2)cc(OC)c1OC | > 100 | > 100 | > 100 | > 100 | > 100 | > 100 | 79.4 | > 100 | > 100 | > 100 | > 100 | > 100 | > 100 | > 100 | > 100 | > 100 | > 100 | > 100 | > 100 | > 100
3 | COC(=O)C(Br)(C(=O)OC)C(Br)C(Br)C(Br)c1ccccc1 (stereo not drawn) | 1.61 | 3.01 | 13.9 | 31.9 | 2.47 | 8.06 | 3.42 | 12.3 | 14.9 | 28.2 | 14.4 | 27.8 | 2.2 | 5.15 | 2.15 | 6.15 | 5.78 | 13.9 | 9.34 | 2.97
4 | CCCCc1n(Cc2ccc3ccccc3n2)cc[n+]1Cc1ccc2ccccc2c1 | 0.639 | 2.11 | 1.4 | 11.8 | 0.337 | 2.57 | 0.22 | 1.11 | 0.605 | 2.12 | 0.977 | 2.64 | 2.89 | 8.8 | 5.07 | 18.1 | 0.508 | 3.98 | 1.36 | 0.265
5 | O=C(/C=C/c1cc(O)ccc1O)c1ccc(Cl)cc1 | 16.7 | 41.6 | 23.4 | 54.7 | 36.5 | > 100 | > 100 | > 100 | 36.8 | > 100 | 60.7 | > 100 | 25.2 | > 100 | 28 | > 100 | 19.1 | 43.3 | – | –
6 | CCN1C(=O)N[C@H]2[C@@H]3NC(=O)c4ccc(Cl)n4[C@@H]3C[C@]21O | 0.397 | 8.32 | 1.27 | 6.89 | 0.222 | 0.933 | 1.04 | 7.69 | 0.31 | 9.25 | 0.301 | 1.21 | 1.5 | 12.4 | 1.66 | 15.6 | 0.531 | 4.52 | 2.08 | 0.363
7 | C#CCn1c2c(c3ccccc3c1=O)C(=O)c1ccccc1-2 | – | > 100 | – | 58.8 | – | 69.4 | – | > 100 | – | – | – | > 100 | – | – | – | > 100 | – | 40.4 | > 100 | –
8 | COc1ccc(OC)c(-c2nc3sc(C)cn3c2/C=C2\C(=O)N(C)c3ccccc32)c1 | 18.6 | 37.1 | 32.2 | > 100 | 30.8 | 73.7 | – | – | 26.4 | 94.7 | 15.6 | 43.6 | 28.7 | > 100 | 19.8 | 81.6 | 24.4 | 59.3 | 40.2 | 13.1
9 | COc1ccc(-c2cncn2-c2ccc(-c3nc4cc(OC)c(OC)c(OC)c4s3)cc2)cc1N | 3.78 | > 100 | 7.54 | > 100 | 3.02 | > 100 | – | – | > 100 | > 100 | 6.04 | > 100 | 5.59 | > 100 | 4.02 | > 100 | 4.76 | > 100 | – | –
10 | Clc1ccc2c(NCCNc3nc(N4CCCCC4)nc4ccccc34)ccnc2c1 | 0.441 | 1.63 | 4.07 | 17.2 | 2.17 | 6.11 | 1.62 | 3.24 | 3.06 | 15.6 | 1.79 | 3.83 | 1.79 | 3.59 | 1.26 | 3.93 | 4.07 | 18.4 | – | –
11 | Nc1ncc(-c2ccc3ncnc(N4CCc5cc(F)c(Cl)cc54)c3c2)cc1C(F)(F)F | 2.08 | > 100 | – | – | 1.07 | > 100 | – | – | 2.62 | > 100 | 2.84 | > 100 | 0.784 | > 100 | 1.57 | > 100 | 2.93 | > 100 | > 100 | 2.33
12 | O=C1Nc2cc(-c3ccc(O)cc3)ccc2/C1=C/c1ccc[nH]1 | 0.115 | > 100 | – | – | 0.0591 | – | 1.14 | 5.12 | 1.06 | > 100 | 0.647 | > 25.7 | 0.0504 | 3.6 | 0.0451 | > 35.3 | 0.0859 | 2.81 | > 20.3 | 0.486
13 | CCOC(=O)CC1C(CNC(=O)NC)OC(n2cnc3c(NC(=O)Nc4ccccc4)ncnc32)C1O[Si](C)(C)C(C)(C)C (stereo not drawn) | 3.2 | 16.1 | 17.7 | > 100 | 2.55 | > 100 | – | – | 29 | > 100 | 5.42 | 33.1 | 8.55 | > 100 | 8.5 | > 100 | 33.3 | > 100 | 4.57 | 1.09
